Inconclusive results and toxic doses are left out.

The test concerns BDF1 mice, M5076 sarcoma ip, median survival T/C. Briefly: NCI In Vivo Anticancer Drug Screen. Data for tumor model Sarcoma M5076 (intraperitoneal) in B6D2F1 (BDF1) mice. As to conditions: endpoint: median survival time, higher = longer survival. The protocol: The antitumor activity of compounds was measured in mice bearing transplantable tumors. Survival or tumor size were measured and the results are expressed as the measurement made in the treated group (T) divided by the measurement made in the vehicle treated control group (C). The tumor model used in this assay is Sarcoma M5076 (intraperitoneal) in B6D2F1 (BDF1) mice

Where [1] appears, read: dose: 0.5 mg/kg/injection, schedule: Q01DX009 (ip), vehicle: saline + alcohol.
Where [2] appears, read: dose: 1.0 mg/kg/injection, schedule: Q01DX009 (ip), vehicle: saline + alcohol.
[3] abbreviates: dose: 2.0 mg/kg/injection, schedule: Q01DX009 (ip), vehicle: saline + alcohol.
The mark [4] stands for this setting: dose: 100.0 mg/kg/injection, schedule: Q04DX004 (ip), vehicle: saline.
[5] abbreviates: dose: 50.0 mg/kg/injection, schedule: Q04DX004 (ip), vehicle: saline with Tween-80.
Where [6] appears, read: dose: 100.0 mg/kg/injection, schedule: Q04DX004 (ip), vehicle: saline with Tween-80.
[7] abbreviates: dose: 200.0 mg/kg/injection, schedule: Q04DX004 (ip), vehicle: saline with Tween-80.
The mark [8] stands for this setting: dose: 3.12 mg/kg/injection, schedule: Q01DX009 (ip), vehicle: saline.

Regarding `C=C1C(=O)O[C@H]2C1[C@H](OC(=O)/C(C)=C\C)CC(=C)[C@@H]1C(=O)[C@H]3O[C@@]3(C)[C@@]12O` (stereo not given in full), the T/C runs as follows: under setting [1], 107 % of control; under setting [2], 102 % of control; under setting [3], 104 % of control; (dose: 5.0 mg/kg/injection, schedule: Q01DX009 (ip), vehicle: saline + alcohol) 113 % of control.

Take `O=c1[nH]cc(F)c(=O)[nH]1`: the T/C reads like this: (dose: 6.25 mg/kg/injection, schedule: Q04DX005 (ip), vehicle: saline) 185 % of control; (dose: 16.0 mg/kg/injection, schedule: Q01DX009 (ip), vehicle: saline) 117 % of control; (dose: 21.6 mg/kg/injection, schedule: Q04DX004 (ip), vehicle: saline) 123 % of control; (dose: 50.0 mg/kg/injection, schedule: Q04DX005 (ip), vehicle: saline) 112 % of control; under setting [4], 154 % of control; (dose: 100.0 mg/kg/injection, schedule: Q04DX005 (ip), vehicle: saline) 176 % of control.

As for `COC1C(O)CC(OC2CC(Oc3cc4cc5c(c(O)c4c(O)c3C)C(=O)[C@@H](OC3CC(OC4CC(OC6CC(C)(O)C(OC(C)=O)C(C)O6)C(O)C(C)O4)C(O)C(C)O3)[C@H]([C@H](OC)C(=O)[C@@H](O)[C@@H](C)O)C5)OC(C)C2OC(C)=O)OC1C` (stereo not given in full), the T/C is 168 % of control (dose: 37.5 micrograms/kg/injection, schedule: Q01DX009 (ip), vehicle: water) and 163 % of control (dose: 75.0 micrograms/kg/injection, schedule: Q01DX009 (ip), vehicle: water).

As for `CC[N+](CC)(CC)CC`, the T/C (dose: 10.8 mg/kg/injection, schedule: Q04DX005 (ip), vehicle: saline with Tween-80) is 172 % of control.

For `COC(=O)Nc1ccc(Cc2ccc(NC(=O)OC)cc2)cc1`, the T/C was 89 % of control under setting [5]; 103 % of control under setting [6]; 118 % of control under setting [7]; 185 % of control (dose: 400.0 mg/kg/injection, schedule: Q04DX004 (ip), vehicle: saline with Tween-80).

Turning to `CN=C(N)N/N=C(\C)c1ccc2sc3ccc(/C(C)=N/NC(N)=NC)cc3c2c1`, the T/C is 113 % of control under setting [5], 105 % of control under setting [6] and 119 % of control under setting [7].

Take `Cc1c(N)nc([C@H](CC(N)=O)NC[C@H](N)C(N)=O)nc1C(=O)N[C@H](C(=O)N[C@H](C)[C@@H](O)[C@H](C)C(=O)N[C@H](C(=O)NCCc1nc(-c2nc(C(=O)NCCC[S+](C)C)cs2)cs1)[C@@H](C)O)C(OC1OC(CO)C(O)C(O)C1OC1OC(CO)C(O)C(OC(N)=O)C1O)c1cnc[nH]1` (stereo not given in full): the T/C by setting is: (dose: 4.0 mg/kg/injection, schedule: Q04DX004 (ip), vehicle: saline) 113 % of control; (dose: 8.0 mg/kg/injection, schedule: Q04DX004 (ip), vehicle: saline) 101 % of control; (dose: 16.0 mg/kg/injection, schedule: Q04DX004 (ip), vehicle: saline) 117 % of control; (dose: 32.0 mg/kg/injection, schedule: Q04DX004 (ip), vehicle: saline) 116 % of control.

With `CN=C(N)c1ccc(N=C(N)c2ccc(C(N)=Nc3ccc(C(N)=NC)cc3)cc2)cc1`, the T/C was 98 % of control (dose: 1.3 mg/kg/injection, schedule: Q01DX005 (iv), vehicle: saline); 100 % of control (dose: 1.3 mg/kg/injection, schedule: Q01DX005 (iv), vehicle: water); 104 % of control (dose: 3.6 mg/kg/injection, schedule: Q01DX005 (iv), vehicle: saline); 100 % of control (dose: 3.6 mg/kg/injection, schedule: Q01DX005 (iv), vehicle: water); 99 % of control (dose: 3.75 mg/kg/injection, schedule: Q01DX005 (iv), vehicle: water); 101 % of control (dose: 3.75 mg/kg/injection, schedule: Q01DX005 (sc), vehicle: water). Also, the T/C was 104 % of control (dose: 6.0 mg/kg/injection, schedule: Q01DX005 (iv), vehicle: saline); 99 % of control (dose: 6.0 mg/kg/injection, schedule: Q01DX005 (iv), vehicle: water); 108 % of control (dose: 7.5 mg/kg/injection, schedule: Q01DX005 (iv), vehicle: water); 165 % of control (dose: 15.0 mg/kg/injection, schedule: Q01DX005 (ip), vehicle: water); 120 % of control (dose: 15.0 mg/kg/injection, schedule: Q01DX005 (sc), vehicle: water); 164 % of control (dose: 18.0 mg/kg/injection, schedule: Q01DX005 (ip), vehicle: saline). The T/C is, setting by setting: (dose: 18.0 mg/kg/injection, schedule: Q01DX005 (ip), vehicle: water) 164 % of control; (dose: 30.0 mg/kg/injection, schedule: Q01DX005 (ip), vehicle: saline) 180 % of control; (dose: 30.0 mg/kg/injection, schedule: Q01DX005 (ip), vehicle: water) 172 % of control.

On to `CCC(O)CC1OC2(CCC1C)CC1OC(=O)/C=C\C(C)(O)C(O)C(C)C(O)C(OC3CC(OC)C(O)C(C)O3)C(O)C(C)(O)CCC/C=C/C3CC(C)COC3(O)CC(O2)C1C` (stereo not given), for which the T/C (dose: 0.25 mg/kg/injection, schedule: Q01DX009 (ip), vehicle: saline + alcohol) is 105 % of control; the T/C under setting [1] is 113 % of control; the T/C under setting [2] was 104 % of control; the T/C under setting [3] was 111 % of control.

With `CCN(CC)CCCNc1nccc2c(C)c3[nH]c4ccncc4c3cc12`, the T/C runs as follows: (dose: 0.63 mg/kg/injection, schedule: Q04DX004 (ip), vehicle: other) 152 % of control; (dose: 1.25 mg/kg/injection, schedule: Q04DX004 (ip), vehicle: other) 191 % of control; (dose: 2.5 mg/kg/injection, schedule: Q04DX004 (ip), vehicle: other) 179 % of control; (dose: 5.0 mg/kg/injection, schedule: Q04DX004 (ip), vehicle: other) 260 % of control; (dose: 10.0 mg/kg/injection, schedule: Q04DX004 (ip), vehicle: other) 208 % of control.

Take `CSC1SCC2C(=O)N(C)C(C(C)C)C(=O)OCC(NC(=O)c3cnc4ccccc4n3)C(=O)NC(C)C(=O)N(C)C1C(=O)N(C)C(C(C)C)C(=O)OCC(NC(=O)c1cnc3ccccc3n1)C(=O)NC(C)C(=O)N2C` (stereo not given): the T/C is 157 % of control (dose: 25.0 micrograms/kg/injection, schedule: Q01DX009 (ip), vehicle: saline with Tween-80); 177 % of control (dose: 50.0 micrograms/kg/injection, schedule: Q01DX009 (ip), vehicle: saline with Tween-80); 201 % of control (dose: 100.0 micrograms/kg/injection, schedule: Q01DX009 (ip), vehicle: saline with Tween-80).

`Oc1cc(O)c(-c2c(O)cc(O)cc2O)c(O)c1` (tested in a mixture with another compound): the T/C runs as follows: (dose: 1.56 mg/kg/injection, schedule: Q01DX009 (ip), vehicle: saline) 118 % of control; under setting [8], 122 % of control; (dose: 3.75 mg/kg/injection, schedule: Q01DX009 (ip), vehicle: saline) 119 % of control; (dose: 6.25 mg/kg/injection, schedule: Q01DX009 (ip), vehicle: saline) 118 % of control; (dose: 12.5 mg/kg/injection, schedule: Q01DX009 (ip), vehicle: saline) 123 % of control; (dose: 15.0 mg/kg/injection, schedule: Q01DX009 (ip), vehicle: saline) 123 % of control.

Take `C1CCC(NC2CCCCC2)CC1`: the T/C reads like this: (dose: 25.0 mg/kg/injection, schedule: Q04DX004 (ip), vehicle: saline) 102 % of control; (dose: 50.0 mg/kg/injection, schedule: Q04DX004 (ip), vehicle: saline) 98 % of control; under setting [4], 100 % of control; (dose: 200.0 mg/kg/injection, schedule: Q04DX004 (ip), vehicle: saline) 105 % of control; (dose: 400.0 mg/kg/injection, schedule: Q04DX004 (ip), vehicle: saline) 105 % of control.

With `O=Cc1c(O)c2ccccc2[nH]c1=O`, the T/C (dose: 25.0 mg/kg/injection, schedule: Q04DX004 (ip), vehicle: saline with Tween-80) was 98 % of control; the T/C under setting [5] was 124 % of control; the T/C under setting [6] is 101 % of control.

Regarding `NC1=NC(O)C=C1` (stereo not given), the T/C is, setting by setting: under setting [8], 118 % of control; (dose: 20.0 mg/kg/injection, schedule: Q01DX009 (ip), vehicle: saline) 152 % of control; (dose: 25.0 mg/kg/injection, schedule: Q01DX009 (ip), vehicle: saline) 160 % of control; (dose: 40.0 mg/kg/injection, schedule: Q01DX009 (ip), vehicle: saline) 152 % of control; (dose: 50.0 mg/kg/injection, schedule: Q01DX009 (ip), vehicle: saline) 178 % of control.

The record behind these values is PubChem BioAssay AID286 (DTP/NCI, 2004).
